How the values were obtained:
Assay type in all cases: in vivo
[1] = test system: upland rice (Oryza sp., var. Tebonnet, RICE); experiment: Pre-emerge test, crop safety; conditions: rating scale 0-100, 14 days after application
Method in brief: (§1)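 Compounds in acetone were track-sprayed at 187 l/ha, 15–1000 g ai/ha, onto sandy loam pots. Pre-emerge seeds were sown one day before spraying, with surface watering afterwards. Post-emerge plants were at the 2–3 leaf stage and sprayed with 0.25% v/v non-ionic surfactant. Injury was rated 0–100 at 14 days.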

[2] = test system: field corn (Zea mays L., var. Dekalb 535, CORN); experiment: Pre-emerge test, crop safety; conditions: rating scale 0-100, 14 days after application
Method in brief: as §1

[3] = test system: redroot pigweed (Amaranthus retroflexus, AMARE); experiment: Pre-emerge test, greenhouse herbicide activity screening; conditions: rating scale 0-100, 14 days after application
Method in brief: as §1

[4] = test system: upland rice (Oryza sp., var. Tebonnet, RICE); experiment: Post-emerge test, crop safety; conditions: rating scale 0-100 (0 no damage, 100 complete death), 14 days after application
Method in brief: (§2)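 Herbicidal damage is scored 0 (none) to 100 (complete plant death) two weeks after a simulated field spray. Rates span 15–1000 g ai/ha, delivered in acetone at 187 l/ha. For post-emergence treatments, plants have 2–3 leaves and the spray carries 0.25% v/v non-ionic surfactant.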

[5] = test system: field corn (Zea mays L., var. Dekalb 535, CORN); experiment: Post-emerge test, crop safety; conditions: rating scale 0-100 (0 no damage, 100 complete death), 14 days after application
Method in brief: as §2

[6] = test system: barnyardgrass (Echinochloa crus-galli, ECHCG); experiment: Post-emerge test, greenhouse herbicide activity screening; conditions: rating scale 0-100 (0 no damage, 100 complete death), 14 days after application
Method in brief: (§3)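 Compounds in acetone were track-sprayed at 15-1000 g ai/ha (187 l/ha) on sandy loam pots: pre-emerge one day after seeding, post-emerge at 2-3 leaf stage with 0.25% v/v non-ionic surfactant. Phytotoxicity was rated 14 days later on a 0 (no damage) to 100 (complete death) scale.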

[7] = test system: large crabgrass (Digitaria sanguinalis, DIGSA); experiment: as above; conditions: rating scale 0-100 (0 no damage, 100 complete death), 14 days after application
Method in brief: as §3

[8] = test system: ivyleaf morningglory (Ipomoea hederacea, IPOHE); experiment: as above; conditions: rating scale 0-100 (0 no damage, 100 complete death), 14 days after application
Method in brief: as §3

[9] = test system: lambsquarters (Chenopodium album, CHEAL); experiment: as above; conditions: rating scale 0-100 (0 no damage, 100 complete death), 14 days after application
Method in brief: as §3

[10] = test system: johnsongrass (Sorghum halepense, SORHA); experiment: as above; conditions: rating scale 0-100 (0 no damage, 100 complete death), 14 days after application
Method in brief: as §3

[11] = test system: redroot pigweed (Amaranthus retroflexus, AMARE); experiment: as above; conditions: rating scale 0-100 (0 no damage, 100 complete death), 14 days after application
Method in brief: as §3

[12] = test system: sicklepod (Cassia obtusifolia, CASOB); experiment: as above; conditions: rating scale 0-100 (0 no damage, 100 complete death), 14 days after application
Method in brief: as §3

[13] = test system: velvetleaf (Abutilon theophrasti, ABUTH); experiment: as above; conditions: rating scale 0-100 (0 no damage, 100 complete death), 14 days after application
Method in brief: as §3

[14] = test system: green foxtail (Setaria viridis, SETVI); experiment: as above; conditions: rating scale 0-100 (0 no damage, 100 complete death), 14 days after application
Method in brief: as §3

[15] = test system: barnyardgrass (Echinochloa crus-galli, ECHCG); experiment: Pre-emerge test, greenhouse herbicide activity screening; conditions: rating scale 0-100, 14 days after application
Method in brief: as §2

[16] = test system: large crabgrass (Digitaria sanguinalis, DIGSA); experiment: as above; conditions: rating scale 0-100, 14 days after application
Method in brief: as §2

[17] = test system: ivyleaf morningglory (Ipomoea hederacea, IPOHE); experiment: as above; conditions: rating scale 0-100, 14 days after application
Method in brief: as §2

[18] = test system: lambsquarters (Chenopodium album, CHEAL); experiment: as above; conditions: rating scale 0-100, 14 days after application
Method in brief: as §2

[19] = test system: johnsongrass (Sorghum halepense, SORHA); experiment: as above; conditions: rating scale 0-100, 14 days after application
Method in brief: as §2

[20] = test system: sicklepod (Cassia obtusifolia, CASOB); experiment: as above; conditions: rating scale 0-100, 14 days after application
Method in brief: as §2

[21] = test system: velvetleaf (Abutilon theophrasti, ABUTH); experiment: as above; conditions: rating scale 0-100, 14 days after application
Method in brief: as §2

[22] = test system: green foxtail (Setaria viridis, SETVI); experiment: as above; conditions: rating scale 0-100, 14 days after application
Method in brief: as §2

CCCCCCOC(=O)C(C)(Cl)Cc1c(OC)c(Cl)cc(F)c1-n1c(=O)cc(C(F)(F)F)n(C)c1=O (centres unmarked) [14-38]
Pre-emerge phytotoxicity rating, crop damage RICE ([1]; 63 g ai/ha): 0
Pre-emerge phytotoxicity rating, crop damage RICE ([1]; 250 g ai/ha): 30
Pre-emerge phytotoxicity rating, crop damage CORN ([2]; 63 g ai/ha): 0
Pre-emerge phytotoxicity rating, crop damage CORN ([2]; 250 g ai/ha): 0
Pre-emerge herbicidal activity, phytotoxicity rating AMARE ([3]; 63 g ai/ha): 99
Pre-emerge herbicidal activity, phytotoxicity rating AMARE ([3]; 250 g ai/ha): 100
Post-emerge phytotoxicity rating RICE (crop damage) ([4]; Rate 63 g ai/ha): 0
Post-emerge phytotoxicity rating RICE (crop damage) ([4]; Rate 250 g ai/ha): 40
Post-emerge phytotoxicity rating CORN (crop damage) ([5]; Rate 63 g ai/ha): 50
Post-emerge phytotoxicity rating CORN (crop damage) ([5]; Rate 250 g ai/ha): 100
Post-emerge Herbicidal Activity, phytotoxicity rating ECHCG ([6]; Rate 63 g ai/ha): 100
Post-emerge Herbicidal Activity, phytotoxicity rating ECHCG ([6]; Rate 250 g ai/ha): 100
Post-emerge Herbicidal Activity, phytotoxicity rating DIGSA ([7]; Rate 63 g ai/ha): 95
Post-emerge Herbicidal Activity, phytotoxicity rating DIGSA ([7]; Rate 250 g ai/ha): 100
Post-emerge Herbicidal Activity, phytotoxicity rating IPOHE ([8]; Rate 63 g ai/ha): 70
Post-emerge Herbicidal Activity, phytotoxicity rating IPOHE ([8]; Rate 250 g ai/ha): 70
Post-emerge Herbicidal Activity, phytotoxicity rating CHEAL ([9]; Rate 63 g ai/ha): 100
Post-emerge Herbicidal Activity, phytotoxicity rating CHEAL ([9]; Rate 250 g ai/ha): 100
Post-emerge Herbicidal Activity, phytotoxicity rating SORHA ([10]; Rate 63 g ai/ha): 0
Post-emerge Herbicidal Activity, phytotoxicity rating SORHA ([10]; Rate 250 g ai/ha): 30
Post-emerge Herbicidal Activity, phytotoxicity rating AMARE ([11]; Rate 63 g ai/ha): 100
Post-emerge Herbicidal Activity, phytotoxicity rating AMARE ([11]; Rate 250 g ai/ha): 100
Post-emerge Herbicidal Activity, phytotoxicity rating CASOB ([12]; Rate 63 g ai/ha): 0
Post-emerge Herbicidal Activity, phytotoxicity rating CASOB ([12]; Rate 250 g ai/ha): 0
Post-emerge Herbicidal Activity, phytotoxicity rating ABUTH ([13]; Rate 63 g ai/ha): 100
Post-emerge Herbicidal Activity, phytotoxicity rating ABUTH ([13]; Rate 250 g ai/ha): 100
Post-emerge Herbicidal Activity, phytotoxicity rating SETVI ([14]; Rate 63 g ai/ha): 90
Post-emerge Herbicidal Activity, phytotoxicity rating SETVI ([14]; Rate 250 g ai/ha): 100
Pre-emerge herbicidal activity, phytotoxicity rating ECHCG ([15]; 63 g ai/ha): 0
Pre-emerge herbicidal activity, phytotoxicity rating ECHCG ([15]; 250 g ai/ha): 70
Pre-emerge herbicidal activity, phytotoxicity rating DIGSA ([16]; 63 g ai/ha): 0
Pre-emerge herbicidal activity, phytotoxicity rating DIGSA ([16]; 250 g ai/ha): 90
Pre-emerge herbicidal activity, phytotoxicity rating IPOHE ([17]; 63 g ai/ha): 0
Pre-emerge herbicidal activity, phytotoxicity rating IPOHE ([17]; 250 g ai/ha): 0
Pre-emerge herbicidal activity, phytotoxicity rating CHEAL ([18]; 63 g ai/ha): 90
Pre-emerge herbicidal activity, phytotoxicity rating CHEAL ([18]; 250 g ai/ha): 100
Pre-emerge herbicidal activity, phytotoxicity rating SORHA ([19]; 63 g ai/ha): 0
Pre-emerge herbicidal activity, phytotoxicity rating SORHA ([19]; 250 g ai/ha): 0
Pre-emerge herbicidal activity, phytotoxicity rating CASOB ([20]; 63 g ai/ha): 0
Pre-emerge herbicidal activity, phytotoxicity rating CASOB ([20]; 250 g ai/ha): 0
Pre-emerge herbicidal activity, phytotoxicity rating ABUTH ([21]; 63 g ai/ha): 40
Pre-emerge herbicidal activity, phytotoxicity rating ABUTH ([21]; 250 g ai/ha): 100
Pre-emerge herbicidal activity, phytotoxicity rating SETVI ([22]; 63 g ai/ha): 0
Pre-emerge herbicidal activity, phytotoxicity rating SETVI ([22]; 250 g ai/ha): 80
